Converted amounts (≈) assume the structure as drawn. “Also recorded” adds a separate entry of the source.
Columns and labels:
[1] = system: B. vulgatus; experiment: Growth curves and time-lapse microscopy under erythromycin; assay type: cell-based, Bacteroides vulgatus; settings: 15 μg/ml erythromycin (5-fold MIC), time-lapse microscopy
Protocol: (§1) Microscopy: For live/dead imaging, stained cells were washed twice in 0.85% NaCl before being spotted on 0.85% NaCl+1% agarose pads between a glass slide and a coverslip. For time-lapse imaging, cells were precultured as described in the growth conditions section. […] Slides were sealed with valap and taken outside of the chamber for imaging. The imaging was performed using a Nikon Eclipse Ti inverted microscope, equipped with a Nikon DS-Qi2 camera, a Nikon Plan Apo Lambda 60× oil Ph3 DM phase contrast objective and a Nikon HC mCherry filter set (Ex 562/40; DM 593; BA 641/75) to detect propidium iodide fluorescence. Images were acquired with the NIS-Elements AR4.50.00 software and processed with Fiji v.2.0.0-rc-68/1.52 h.
(§2) Growth curves: Cells were precultured as described in the growth conditions section. Then, cells were diluted to an OD578=0.01 in a 96-well plate sealed with a breathable membrane (Breathe-Easy®) and grown for 2 h. Next, erythromycin was added to the culture to a final concentration of 15 μg/ml (5-fold MIC) and growth curves were acquired for 20 h using a microplate spectrophotometer (EON, Biotek) by measuring the OD578 every hour after 30 sec of linear shaking.

[2] = system: Streptococcus groups A, B, C & G; settings: cited from earlier work
[3] = system: Staphylococcus; settings: cited from earlier work
[4] = system: seven-member synthetic community including the pathogen E. faecalis; experiment: E. faecalis-containing synthetic community, community growth AUC (Example 7); assay type: cell-based
Description: (§3) Heat maps show median area under the growth curve (AUC) of the seven-member synthetic community including the pathogen E. faecalis. The numbers within the heat map represent the total number of all E. faecalis viable cells for each erythromycin-antidote combination as determined by enumerating of E. faecalis colony forming units after plating on selective medium. All drug concentrations are in μM. n. d.=not detectable.
(§4) The inventors exposed synthetic communities that contained the intestinal gut pathogen E. faecalis to erythromycin, and evaluated rescue of gut commensals and simultaneous killing of the pathogen in the presence of antidotes.

[5] = system: B. uniformis; experiment: Growth curves and time-lapse microscopy under erythromycin; assay type: cell-based, Bacteroides uniformis; settings: 15 μg/ml erythromycin (5-fold MIC), time-lapse microscopy
Protocol: as §1, §2

[6] = system: E. faecalis; experiment: E. faecalis-containing synthetic community, E. faecalis CFU on selective medium (Example 7); assay type: cell-based, Enterococcus faecalis
Description: as §3, §4

[7] = system: S. pneumoniae; settings: cited from earlier work
[8] = system: B. vulgatus; experiment: Prestwick library screen for microbiome-protective antibiotic antagonists (growth AUC z-scores); assay type: cell-based, Bacteroides vulgatus; settings: z-score of normalized growth AUC, two replicates
[9] = system: B. vulgatus; experiment: Validation of microbiome-protective antagonists (concentration-dependent growth rescue); assay type: cell-based, Bacteroides vulgatus; settings: antagonist gradient, normalized AUC >0.25 = growth rescue
Protocol: Validation of microbiome-protective antagonists: In a first step, the inventors kept the erythromycin/doxycycline concentration constant (0.625 μM for erythromycin, 0.078 μM (B. vulgates)/0.039 μM (B. uniformis) for doxycycline) and tested concentration gradients of the potential antagonists with ranges depending on the antagonist's solubility. Compounds were purchased from independent vendors and dissolved at 100× starting concentration in DMSO. Eight 2-fold serial dilutions were prepared in 96-well plates with each row containing a different antagonist, sufficient control DMSO wells and wells with just the respective antibiotic (‘antibiotic-only’ control). These master plates were diluted in MGAM medium (50 μl) to 2×assay concentration and 25 μl freshly prepared antibiotic solution (4× test concentration) was added. Plates were pre-reduced overnight in an anaerobic chamber and inoculated with 25 μl of overnight cultures (prepared as described under “Growth conditions”) to reach a starting OD578 of 0.01 and 1% DMSO concentration. Growth was monitored hourly for 24 h after 30 sec of linear shaking. Experiments were performed in biological triplicates. For analysis, growth curves were converted into normalized AUCs (see above). The inventors accounted for residual growth in the presence of the antibiotic by subtracting the median normalized AUCs of the ‘antibiotic-only’ control per plate.

[10] = system: B. vulgatus; experiment: 8x8 checkerboard assay for anaerobic commensals (antibiotic vs antagonist); assay type: cell-based, Bacteroides vulgatus; settings: for rescue of B. vulgatus growth from erythromycin: combination with erythromycin
Description: (§5) Checkerboard assays for anaerobic commensals: Validated antagonists were further investigated in 8×8 checkerboard assays, where both antibiotics and antagonists were titrated against each other. Such assays were first performed for the commensals that were originally screened (i. e. B. vulgatus and B. uniformis—4 replicates) and later expanded towards 6 further gut microbes (B. caccae, B. fragilis NT, B. ovatus, B. thetaiotaomicron, P. copri, P. distasonis—2 replicates). For vertical gradients, 2-fold serial dilutions of the antagonists were prepared first in 100× in DMSO and diluted in MGAM as described above (section ‘Validation of microbiome-protective antagonists’). Horizontal antibiotic dilution series were freshly prepared in MGAM at 4× final concentration in equidistant concentration steps. Both, vertical and horizontal dilution series were combined (50 μl of the antagonist gradients (2×) and 25 μl of the antibiotic gradients (4×)) in 96 well plates. Plates were pre-reduced under anaerobic conditions overnight, inoculated with 25 μl of diluted overnight culture (at 4× starting OD) and sealed with breathable membrane (Breathe-Easy®). Bacterial growth was monitored once per hour for 24 hours after 30 sec linear shaking (Eon+Biostack 4, Biotek) under anaerobic conditions. Growth curves were converted into normalized AUCs as described using in-plate controls to define unperturbed growth.

[11] = system: species of the order Bacteroidales; experiment: Antidote vs azithromycin across seven gut Bacteroidales (Example 4); assay type: cell-based; settings: combination with azithromycin
Protocol: The antidotes dicumarol (first column), benzbromarone (second column) and tolfenamic acid (third column) were tested for their efficacy in antagonizing the macrolide antibiotic azithromycin across seven prevalent and abundant gut Bacteroidales (B. vulgatus, B. fragilis NT, B. thetaiotaomicron, P. copri, B. caccae, B. ovatus, P. distasonis). […] All drug concentrations are in μM.
In particular, they aimed at testing, whether these antidotes can also protect from other macrolides such as azithromycin, a clinically more relevant antibiotic.

[12] = system: E. faecium; experiment: Antidote with macrolide on enterococci (Example 6); assay type: cell-based
[13] = system: abundant gut commensal species; experiment: Checkerboard assays on further abundant gut commensals; assay type: cell-based; settings: for tested abundant gut commensal species whose growth is rescued: antidote 5-40 μm, clinically relevant erythromycin concentrations; for counteracting erythromycin on other abundant gut commensals: checkerboard with erythromycin
Description: as §5

[14] = system: synthetic gut commensal community of seven human gut commensals; experiment: Synthetic gut commensal community growth with macrolide and antidote (Example 5); assay type: cell-based; settings: erythromycin and azithromycin
Description: Heat maps depict area under the growth curve (AUC) of a synthetic community consisting of seven human gut commensals. Shown is the median AUC of three individual replicates. All drug concentrations are in μM.
So far, antidote effects have only been analyzed in single or pure cultures. However, the human gut microbiome is a complex community of many different bacterial taxa that is usually not adequately mimicked in monocultures.

[15] = system: E. faecalis; experiment: Antidote with macrolide on enterococci (Example 6); assay type: cell-based, Enterococcus faecalis
Description: Heat maps show median area under the growth curve (AUC) of three biologically independent replicates. […] All drug concentrations are in μM.
Here, the inventors expanded testing towards additional antidotes, and included the intestinal human pathogen Enterococcus faecalis.

[16] = system: E. faecium; experiment: Checkerboard assays for pathogens under aerobic conditions; assay type: cell-based
Protocol: (§6) Checkerboard assays for pathogens under aerobic conditions: For three pathogens (S. aureus Newman ATCC 13420, S. aureus subsp. aureus Rosenbach 1884 DSM20231 and E. faecium ATCC19434) 8×8 checkerboard assays were performed in transparent 384 well plates (Greiner BioOne GmbH), with each well containing 30 μl (50 μl for S. pneumoniae) in total. S. aureus strains were grown in tryptic soy broth, E. faecium in BHI medium. Antagonistic drug concentrations were 2-fold distant. Cell were inoculated at initial OD595 nm 0.01 from an overnight culture. Plates were sealed with breathable membranes (Breathe-Easy), incubated at 37° C. (Cytomat 2, Thermo Scientific) with continuous shaking and OD595 nm was measured every 30 minutes for 16 hours in a Filtermax F5 multimode plate reader (Molecular Devices). Growth was evaluated at the transition to stationary phase (9 hours for S. aureus, 12 hours for E. faecium). All experiments were done at least in 2 biological replicates and 2 technical replicates. For S. pneumoniae […], the inventors only tested concentration gradients of the potential antagonists in constant concentration of the antibiotics in BHI medium.

[17] = system: Staphylococcus aureus; experiment: as above; assay type: cell-based; settings: for effect on the potency of erythromycin: Staphylococcus aureus, aerobic
Protocol: as §6

[18] = system: Streptococcus pneumoniae; experiment: Antagonist concentration gradients at constant antibiotic concentration, aerobic; assay type: cell-based
Protocol: as §6

[19] = Erythromycin 0.625 μM + 20 μM drug
[20] = erythromycin 1.15 μM + 40 μM dicumarol or 20 μM benzbromarone

## CC[C@H]1OC(=O)[C@H](C)[C@@H](O[C@H]2C[C@@](C)(OC)[C@@H](O)[C@H](C)O2)[C@H](C)[C@@H](O[C@@H]2O[C@H](C)C[C@H](N(C)C)[C@H]2O)[C@](C)(O)C[C@@H](C)C(=O)[C@H](C)[C@@H](O)[C@]1(C)O [Erythromycin, erythromycin]
[1]
  cell morphology / lysis: cell shape defects, including blebbing, cytoplasmic shrinkage, and ultimately cell lysis
[2]
  MIC breakpoint: 0.25 µg/mL (≈ 0.341 µM)
[3]
  MIC breakpoint: 1 µg/mL (≈ 1.36 µM)
[4]; erythromycin 1.15 μM alone
  community growth (AUC): partially inhibited
[5]
  cell morphology / lysis: cell shape defects, including blebbing, cytoplasmic shrinkage, and ultimately cell lysis
[6]; erythromycin 1.15 μM alone
  E. faecalis cells in the community: ~9×10^5 cells
[7]
  MIC breakpoint: 0.25 µg/mL (≈ 0.341 µM)

## Cc1c(Cl)cccc1Nc1ccccc1C(=O)O [Tolfenamic acid]
[8]; Doxycycline 0.08 μM + 20 μM drug
  Mean z-score: 4.000
[8]; [19]
  Mean z-score: 7.381
[9]; Doxycycline 0.078 μM constant
  Validation: TRUE
[9]; Erythromycin 0.625 μM constant
  Validation: TRUE
[10]; combination with doxycycline
  rescue of B. vulgatus growth from doxycycline: able to protect
[10]
  rescue of B. vulgatus growth from erythromycin: able to protect; also recorded: can rescue the growth
[11]
  protection of Bacteroidales species from azithromycin: can be Protected
[12]
  interaction with antibacterial effects of erythromycin/azithromycin: synergized
  rescue from erythromycin or azithromycin treatment: Neither dicumarol nor benzbromarone or tolfenamic acid could rescue
[13]
  tested abundant gut commensal species whose growth is rescued: 5/7
  counteracting erythromycin on other abundant gut commensals: able to counteract erythromycin on several species
[14]
  protection (growth rescue) of synthetic gut commensal community from macrolide antibiotics: can be Protected
[15]
  interaction with antibacterial effects of erythromycin/azithromycin: synergized
  rescue from erythromycin or azithromycin treatment: Neither dicumarol nor benzbromarone or tolfenamic acid could rescue
[16]
  drug interaction with erythromycin in checkerboard: neutral interactions
[17]; S. aureus, aerobic conditions
  drug interaction with erythromycin in checkerboard: neutral interactions
[17]
  effect on the potency of erythromycin: did not affect the potency
[18]
  effect on the potency of erythromycin: did not affect the potency

## O=c1oc2ccccc2c(O)c1Cc1c(O)c2ccccc2oc1=O [Dicumarol, 3,3′-Methylene-bis(4-hydroxycoumarin)]
[8]; [19]
  Mean z-score: 7.313
[9]; Erythromycin 0.625 μM constant
  Validation: TRUE
[4]; [20]
  community growth (AUC): the community is rescued
[4]; erythromycin + antidote
  rescue of the community despite erythromycin treatment: rescue of the community
[10]
  rescue of B. vulgatus growth from erythromycin: rescued; also recorded: can rescue the growth
[6]; [20]
  E. faecalis counts: drop/are still found at below the detection limit
[6]; erythromycin + antidote
  E. faecalis cells in community under erythromycin + antidote: efficiently inhibited
[11]
  protection of Bacteroidales species from azithromycin: can be Protected
[12]
  rescue from erythromycin or azithromycin treatment: Neither dicumarol nor benzbromarone or tolfenamic acid could rescue
[13]
  tested abundant gut commensal species whose growth is rescued: 5/7
  counteracting erythromycin on other abundant gut commensals: able to counteract erythromycin on several species
[14]
  protection (growth rescue) of synthetic gut commensal community from macrolide antibiotics: can be Protected
[15]
  rescue from erythromycin or azithromycin treatment: Neither dicumarol nor benzbromarone or tolfenamic acid could rescue
[17]
  effect on the potency of erythromycin: did not affect the potency
[18]
  effect on the potency of erythromycin: did not affect the potency

Source: patent US20220387466A1, “COMPOUNDS AND PHARMACEUTICAL COMPOSITIONS FOR PREVENTION AND/OR TREATMENT OF DYSBIOSIS AND ANTIBACTERIAL ANTIDOTES FOR MICROBIOME-PROTECTION” (priority 2019, published 2022)
